{"source": "paper PMC5698418", "about": "(Nature Communications, 2017)", "key": {"[1]": {"tested_on": "Arc protein", "test": "Western blot of total Arc protein in primary cortical neurons", "type": "cell-based, mouse", "conditions": "BDNF 6 h supplemented with compound", "experimental": "Forebrains of E16.5 C57BL/6 mouse embryos were dissected and then dissociated in trypsin solution for 15 min followed by three washes with phosphate-buffered saline (PBS). Single-cell suspension was achieved by gentle pipet trituration. Neurons were seeded in poly-L-lysine/laminin-coated six-well plates at a density of 2 × 10^6 per well and maintained in neurobasal medium containing B27 supplement (2%, Invitrogen, Grand Island, NY), penicillin (50 units ml^−1, Invitrogen), streptomycin (50 µg ml^−1, Invitrogen), and glutamine (1 mM, Sigma). For experiments involving BDNF (EMD Millipore Corps, Billerica, MA), the stock solution (2 ng µl^−1 in water) was added directly to the culture medium at a final concentration of 100 ng ml^−1 for the indicated period of time.\nFor western blot analyses, cells were collected by scraping in ice-cold radioimmunoprecipitation assay (RIPA) buffer (50 mM Tris-HCl (pH 8.0), 300 mM NaCl, 0.5% Igepal-630, 0.5% deoxycholic acid, 0.1% SDS, 1 mM EDTA) supplemented with a cocktail of protease inhibitors (Complete Protease Inhibitor without EDTA, Roche Applied Science, Indianapolis, IN) and phosphatase inhibitors (phosphatase inhibitor cocktail A, Santa Cruz Biotechnology). One volume of 2× Laemmli buffer (100 mM Tris-HCl (pH 6.8), 4% SDS, 0.15% bromophenol blue, 20% glycerol, 200 mM β-mercaptoethanol) was added and the extracts were boiled for 5 min. Samples were adjusted to an equal concentration after protein concentrations were determined using the BCA assay (Pierce, Thermo Fisher Scientific). Lysates were separated using SDS–PAGE and transferred to a nitrocellulose membrane. After transfer, the membrane was blocked in TBST (Tris-buffered saline + 0.1% Tween 20) supplemented with 5% nonfat powdered milk and probed with the indicated primary antibody at 4 °C overnight. After washing with TBST, the membrane was incubated with the appropriate secondary antibody and visualized using enhanced chemiluminescence (ECL) reagents according to the manufacturer’s guidelines (Pierce, Thermo Fisher Scientific).\nThe following procedure was used to quantify western blots. First, equal quantity of protein lysate was analyzed by SDS–PAGE for each biological replicate. Second, the exposure time of the film to the ECL chemiluminescence was the same for each biological replicate. Third, all the exposed films were scanned on a Brother MFC-J485DW scanner in grayscale at a resolution of 300 dpi. Fourth, the look-up table (LUT) of the scanned tiff images was inverted and the intensity of each band was individually measured using the selection tool and the histogram function in Adobe Photoshop CC 2015 software. […]"}, "[2]": {"tested_on": "GluA1 mRNA", "test": "GluA1 mRNA by RT-qPCR in cortical neurons", "type": "cell-based, mouse", "conditions": "BDNF plus AK-7 16.7 µM vs BDNF plus vehicle, 6 h", "protocol": "After experimental treatment, total RNA was isolated from primary cortical neuron cultures using the TRIzol method (Invitrogen). The concentration of total RNA was measured using a NanoDrop 1000 spectrophotometer (Thermo Fisher Scientific, Rockford, IL) and first-strand complementary DNA (cDNA) was synthesized using the iScript cDNA Synthesis Kit (Bio-Rad, Hercules, CA). Real-time PCRs were performed using gene-specific primers and monitored by quantification of SYBR Green I fluorescence using a Bio-Rad CFX96 Real-Time Detection System. Expression was normalized against Gapdh expression. The relative quantification from at least three biological replicates was performed using the comparative cycle threshold (∆∆CT) method.\nPrimers for real-time reverse transcription PCR experiments were: Arc, 5′-[…]-3′ (forward) and 5′-[…]-3′ (reverse); Map2, 5′-[…]-3′ (forward) and 5′-[…]-3′ (reverse); GluA1, 5′-[…]-3′ (forward) and 5′-[…]-3′ (reverse); GluA2, 5′-[…]-3′ (forward) and 5′-[…]-3′ (reverse); Gapdh, 5′-[…]-3′ (forward) and 5′-[…]-3′ (reverse).\nSupplementary Fig. 6. […] Bars represent mean fold-change and error bars indicate range from five biological replicates."}, "[3]": {"molecular_target": "T1, HDAC1 (Homo sapiens, UniProt Q13547)", "T1 construct": "purchased BPS Bioscience (San Diego, CA), contract assay service", "T1 sequence (Q13547 whole entry)": "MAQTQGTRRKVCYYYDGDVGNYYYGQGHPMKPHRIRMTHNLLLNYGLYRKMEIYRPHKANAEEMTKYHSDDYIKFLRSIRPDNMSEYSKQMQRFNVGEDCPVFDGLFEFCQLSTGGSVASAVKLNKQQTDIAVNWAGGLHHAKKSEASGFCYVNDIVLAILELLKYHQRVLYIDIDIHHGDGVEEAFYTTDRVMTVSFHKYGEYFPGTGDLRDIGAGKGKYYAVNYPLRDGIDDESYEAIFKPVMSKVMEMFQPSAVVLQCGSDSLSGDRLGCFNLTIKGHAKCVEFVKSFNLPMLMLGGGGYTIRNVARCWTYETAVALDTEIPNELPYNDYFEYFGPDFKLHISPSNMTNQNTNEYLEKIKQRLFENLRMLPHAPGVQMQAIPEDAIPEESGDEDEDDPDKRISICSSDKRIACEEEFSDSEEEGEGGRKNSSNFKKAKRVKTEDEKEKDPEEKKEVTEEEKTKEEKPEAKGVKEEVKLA", "test": "Biochemical HDAC assay (BPS Bioscience), HDAC1", "conditions": "25 µM"}, "[4]": {"molecular_target": "T2, HDAC3 (Homo sapiens, UniProt O15379)", "T2 construct": "purchased BPS Bioscience (San Diego, CA), contract assay service", "T2 sequence (O15379 whole entry)": "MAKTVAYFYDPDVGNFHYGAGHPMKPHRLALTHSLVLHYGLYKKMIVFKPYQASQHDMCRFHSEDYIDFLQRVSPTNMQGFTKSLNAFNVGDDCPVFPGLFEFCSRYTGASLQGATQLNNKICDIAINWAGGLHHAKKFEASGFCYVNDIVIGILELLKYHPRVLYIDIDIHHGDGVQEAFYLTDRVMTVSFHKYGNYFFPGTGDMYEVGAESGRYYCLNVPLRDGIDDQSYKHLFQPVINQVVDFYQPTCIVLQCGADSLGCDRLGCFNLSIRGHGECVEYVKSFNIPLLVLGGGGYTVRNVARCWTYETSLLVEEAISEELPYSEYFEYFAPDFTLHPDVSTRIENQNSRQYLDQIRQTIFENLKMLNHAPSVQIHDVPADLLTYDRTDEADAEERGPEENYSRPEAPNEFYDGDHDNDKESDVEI", "T2 sequence (Q9Y618 395-489 partner limits assumed)": "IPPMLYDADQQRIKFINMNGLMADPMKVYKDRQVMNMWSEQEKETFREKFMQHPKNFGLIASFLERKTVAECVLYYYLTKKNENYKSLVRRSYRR", "test": "Biochemical HDAC assay (BPS Bioscience), HDAC3", "conditions": "25 µM"}, "[5]": {"molecular_target": "T3, HDAC6 (Homo sapiens, UniProt Q9UBN7)", "T3 construct": "purchased BPS Bioscience (San Diego, CA), contract assay service", "T3 sequence (Q9UBN7 whole entry)": "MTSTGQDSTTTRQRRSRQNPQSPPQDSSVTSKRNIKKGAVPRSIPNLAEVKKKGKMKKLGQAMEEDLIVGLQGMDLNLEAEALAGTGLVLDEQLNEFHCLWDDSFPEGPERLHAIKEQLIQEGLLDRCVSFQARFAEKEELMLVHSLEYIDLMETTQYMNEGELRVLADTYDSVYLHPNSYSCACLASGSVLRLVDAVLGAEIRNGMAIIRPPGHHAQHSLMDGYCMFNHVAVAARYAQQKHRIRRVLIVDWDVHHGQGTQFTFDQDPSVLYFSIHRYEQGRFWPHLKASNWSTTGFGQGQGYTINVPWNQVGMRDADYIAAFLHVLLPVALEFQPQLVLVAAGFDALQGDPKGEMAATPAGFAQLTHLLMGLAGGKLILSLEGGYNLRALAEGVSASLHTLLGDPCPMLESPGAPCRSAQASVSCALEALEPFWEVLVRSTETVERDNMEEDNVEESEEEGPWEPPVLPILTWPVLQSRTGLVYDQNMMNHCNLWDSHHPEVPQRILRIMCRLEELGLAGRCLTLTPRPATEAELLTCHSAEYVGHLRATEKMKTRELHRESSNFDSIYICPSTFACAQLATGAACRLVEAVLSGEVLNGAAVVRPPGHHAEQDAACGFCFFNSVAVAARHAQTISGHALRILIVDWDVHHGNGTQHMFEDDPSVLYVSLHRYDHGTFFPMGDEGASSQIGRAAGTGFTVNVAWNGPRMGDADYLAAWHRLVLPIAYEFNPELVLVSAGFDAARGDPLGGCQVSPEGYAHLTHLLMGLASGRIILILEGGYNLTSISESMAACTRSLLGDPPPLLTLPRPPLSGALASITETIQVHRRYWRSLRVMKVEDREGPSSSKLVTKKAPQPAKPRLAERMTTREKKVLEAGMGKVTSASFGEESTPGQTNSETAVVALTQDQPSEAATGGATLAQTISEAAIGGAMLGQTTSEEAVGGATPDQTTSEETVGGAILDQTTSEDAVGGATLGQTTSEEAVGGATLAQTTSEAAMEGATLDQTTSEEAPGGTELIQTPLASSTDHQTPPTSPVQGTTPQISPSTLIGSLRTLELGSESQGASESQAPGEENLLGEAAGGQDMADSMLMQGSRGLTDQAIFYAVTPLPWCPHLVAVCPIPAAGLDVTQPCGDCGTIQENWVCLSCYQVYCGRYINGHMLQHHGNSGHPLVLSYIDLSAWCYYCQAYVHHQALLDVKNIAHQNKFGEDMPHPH", "test": "Biochemical HDAC assay (BPS Bioscience), HDAC6", "conditions": "25 µM"}, "[6]": {"tested_on": "surface GluA1", "test": "Surface AMPAR (GluA1) imaging along dendrites", "type": "cell-based, mouse", "conditions": "16.7 µM, 6 h with BDNF, vs untreated and BDNF alone; for BDNF: BDNF alone vs baseline", "protocol": "Our procedure to label surface AMPARs containing the GluA1 subunit was adapted from two reports[14],[61]. Precisely, DIV14 primary cortical neurons cultured on coverslips were rinsed once with room temperature PBS^MC (PBS containing 0.5 mM CaCl2, 1 mM MgCl2, and 4% sucrose). Live cells were then incubated for 30 min at room temperature with GluA1 primary antibody solution (PBS^MC with antibody against the extracellular N-terminus of GluA1 (EMD Millipore Corp, clone RH95, 5.0 µg ml^−1)). Next, cells were rinsed twice with ice-cold PBS^MC followed by fixation with 4% paraformaldehyde + 4% sucrose solution for 15 min at room temperature. After fixation, neurons were washed with regular PBS and then incubated overnight with Map2 primary antibody solution (PBS with 0.125% Triton X-100, 5% normal goat serum, and anti-Map2 antibody) to label dendrites. Next day, coverslips were washed with PBS, incubated with appropriate secondary antibodies for 1 h at room temperature, and finally mounted on glass slides with ProLong Antifade reagent (Invitrogen).\nQuantification of surface GluA1 puncta was performed according to the following strategy. First, overlapping digital images of GluA1 and Map2 immunostainings were collected using a Zeiss AxioObserver Z1 inverted microscope and ×63 oil immersion objective. Second, thresholding and segmentation based on the Map2 images was used to remove GluA1 signals outside of dendritic processes. Importantly, the same background/foreground cutoff threshold was used for images of all experimental conditions. Third, the length of dendrites for each image set was measured and recorded. Finally, distinct GluA1 foreground objects along dendrites >5 pixels were counted using the particle analysis tool in ImageJ and presented as the average number of GluA1 puncta per µm of dendrite length for each experimental condition."}, "[7]": {"parameters": "method as in PMID 21370928, PMID 23200855", "conditions": "ref [34],[42]; cited from earlier work"}}, "data": [{"smiles": "O=C(Nc1cccc(Br)c1)c1cccc(S(=O)(=O)N2CCCCCC2)c1", "note": "[AK-7]", "values": [{"measurement": "total Arc protein vs BDNF plus vehicle control (western blot, Arc/β-actin)", "setting": "[1]", "result": "significantly more Arc protein"}, {"measurement": "GluA1 mRNA expression", "setting": "[2]", "result": "does not affect"}, {"measurement": "inhibitory activity toward HDAC1", "setting": "[3]", "result": "failed to show any inhibitory activity"}, {"measurement": "inhibitory activity toward HDAC3", "setting": "[4]", "result": "failed to show any inhibitory activity"}, {"measurement": "inhibitory activity toward HDAC6", "setting": "[5]", "result": "failed to show any inhibitory activity"}, {"measurement": "surface GluA1 puncta per dendrite µm", "setting": "[6]", "result": "significant decrease in surface GluA1 levels"}, {"measurement": "blood–brain barrier crossing", "setting": "[7]", "result": "can efficiently cross the blood–brain barrier"}]}]}
